From patent US8178688B2, “Benzamidine derivatives, process for the preparation thereof and pharmaceutical composition comprising the same” (Dong Wha Pharmaceutical Co., Ltd., priority 2004, dated 2012) come the findings set out here.

For the data set, the system named is cells. Description: Cytotoxicity test (MTT). Conditions: 10^−6M, 72 hrs, compared with the control group. The data set is classed as cell-based. Put shortly: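 Benzamidine derivatives were checked for cytotoxicity with an MTT assay. Test substances were diluted in a suitable solvent to 10^−2M. Cells were seeded at 1×10^4 cell/100 μL per well in 96-well microplates and grown for 72 hrs. During the final 4 hrs, 25 μL of MTT (2 mg/mL in PBS) was added. Plates were then centrifuged, the medium removed, formazan dissolved in 100 μL DMSO, and absorbance read at 540 nm.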

Consider `CC(C)c1nc(-c2ccc(OCCCCCOc3ccc(C(=N)NO)cc3)cc2)c(CC2CCCC2)s1` [Example 47, N-hydroxy-4-(5-[4-(5-cyclopentylnnethyl-2-isopropyl-1,3-thiazol-4-yl)phenoxy]pentoxy)-benzamidine], for which the “Survival rates of the cells” value by setting is: (MC3T3-E1 cells) 54.2%; (ST2 cells) 24.0%.
